Measurements as given in patent US4001218A, “Penicillins” (Bayer Aktiengesellschaft, priority 1972, dated 1977).
One block for each compound: values may come before it.

Columns and labels:
[1] = tested on: E. coli 183/58; assay: MIC, test tube series dilution test, E. coli 183/58; type: cell-based; details: 24 hours, 37°C
[2] = tested on: E. coli 14; type: cell-based; details: E. coli 14; 24 hours, 37°C
[3] = tested on: Enterococcus 9790; assay: MIC, test tube series dilution test, Enterococcus 9790; type: cell-based; details: 24 hours, 37°C
[4] = tested on: Proteus vulg. 1017; type: cell-based, Proteus vulgaris; details: Proteus 1017; 24 hours, 37°C
[5] = tested on: Psdm. aerug. F 41; assay: MIC, test tube series dilution test, Psdm. aerug. F 41; type: cell-based, Pseudomonas aeruginosa; details: Psdm. aerug. F 41; 24 hours, 37°C
[6] = tested on: Psdm. aerug. Walter; assay: MIC, test tube series dilution test, Psdm. aerug. Walter; type: cell-based, Pseudomonas aeruginosa; details: Psdm. aerug. Walter; 24 hours, 37°C
[7] = tested on: Klebsiella K 10; assay: MIC, test tube series dilution test, Klebsiella K 10; type: cell-based; details: 24 hours, 37°C
[8] = tested on: E. coli A 261; assay: MIC, test tube series dilution test, E. coli A 261; type: cell-based; details: 24 hours, 37°C
[9] = tested on: Staph. aureus 1756; assay: MIC, test tube series dilution test, Staph. aureus 1756; type: cell-based, Staphylococcus aureus; details: Staph. aureus 1756; 24 hours, 37°C
[10] = tested on: Staph. aureus 133; type: cell-based, Staphylococcus aureus; details: Staph. aureus 133; 24 hours, 37°C
[11] = tested on: Klebsiella 63; assay: MIC, test tube series dilution test, Klebsiella 63; type: cell-based; details: Klebsiella 63; 24 hours, 37°C
[12] = tested on: Proteus morg. 932; assay: MIC, test tube series dilution test, Proteus morg. 932; type: cell-based; details: 24 hours, 37°C
[13] = tested on: E. coli C 165; assay: MIC, test tube series dilution test, E. coli C 165; type: cell-based; details: 24 hours, 37°C
[14] = tested on: Psdm. aerug. F 41; assay: animal experiment, Psdm. aerug. F 41 infection; details: s.c. 4 × 3000 Units per animal
[15] = tested on: Klebsiella 63; assay: animal experiment, Klebsiella 63 infection; details: s.c. 2 × 3000 Units per animal
[16] = tested on: Klebsiella 62; assay: animal experiment, Klebsiella 62 infection; details: 1st day after infection; s.c. 2 × 3000 Units per animal; experiment with Ex.1
[17] = 1st day after infection, experiment with Ex.29
[18] = 2nd day after infection, experiment with Ex.29
[19] = 3rd day after infection, experiment with Ex.29
[20] = 5th day after infection, experiment with Ex.29
[21] = 1st day after infection, experiment with Ex.41
[22] = 1st day after infection, experiment with Ex.7
[23] = 1st day after infection, experiment with Ex.22
[24] = 2nd day after infection, experiment with Ex.22

Compound: CC1(C)S[C@@H]2[C@H](NC(=O)[C@H](NC(=O)c3ccc(NC(=O)c4ccc(N)cc4)cc3)c3ccccc3)C(=O)N2[C@H]1C(=O)O [Example 29, sodium D(-)-α-[4-(4-aminobenzoylamino)-benzoylamino] -benzylpenicillin]
MIC [1]: 16 U/ml | MIC [2]: < 1 U/ml | MIC [3]: 4 U/ml | MIC [4]: 256 U/ml | MIC [5]: ~ 32 U/ml | MIC [6]: 32 U/ml | MIC [7]: 128 U/ml | MIC [8]: > 256 U/ml | MIC [9]: 32 U/ml | MIC [10]: < 1 U/ml | MIC [11]: 64 U/ml | MIC [12]: > 256 U/ml | MIC [13]: 4 U/ml | Surviving animals [14, 17]: 100% | Surviving animals [14, 18]: 80% | Surviving animals [14, 19]: 70% | Surviving animals [14, 20]: 70%

Compound: CC1(C)S[C@@H]2[C@H](NC(=O)C(C(=O)O)c3ccccc3)C(=O)N2[C@H]1C(=O)O (stereo partly shown) [Carbenicillin, reference compound]
Surviving animals [15, 21]: 0% | Surviving animals [15, 22]: 0% | Surviving animals [16]: 0% | Surviving animals [14, 23]: 50% | Surviving animals [14, 17]: 80% | Surviving animals [14, 24]: 0% | Surviving animals [14, 18]: 30% | Surviving animals [14, 19]: 30% | Surviving animals [14, 20]: 20%

Compound: CC1(C)S[C@@H]2[C@H](NC(=O)[C@H](NC(=O)c3ccc(NC(=O)C4CCCC4)cc3)c3ccccc3)C(=O)N2[C@H]1C(=O)O [Example 7, sodium D(-)-α-(4-cyclopentanecarbonylamino-benzoylamino)-benzylpenicillin]
MIC [1]: 8 U/ml | Surviving animals [15, 22]: 100% | Surviving animals ([15]; 2nd day after infection, experiment with Ex.7): 100% | Surviving animals ([15]; 3rd day after infection, experiment with Ex.7): 20% | MIC [2]: < 1 U/ml | MIC [3]: 8 U/ml | MIC [4]: 32 U/ml | MIC [5]: 32 U/ml | MIC [6]: 32 U/ml | MIC [7]: 32 U/ml | MIC [8]: > 256 U/ml | MIC [9]: 64 U/ml | MIC [10]: < 1 U/ml | MIC [11]: 32 U/ml | MIC [12]: 256 U/ml | MIC [13]: 8 U/ml

Compound: COc1cc(OC)cc(C(=O)Nc2ccc(C(=O)N[C@@H](C(=O)N[C@@H]3C(=O)N4[C@@H]3SC(C)(C)[C@@H]4C(=O)O)c3ccccc3)cc2)c1 [Example 18]
MIC [1]: 8 U/ml | MIC [2]: 4 U/ml | MIC [3]: 8 U/ml | MIC [4]: 64 U/ml | MIC [5]: 16 U/ml | MIC [6]: 16 U/ml | MIC [7]: 64 U/ml | MIC [8]: > 256 U/ml | MIC [9]: 16 U/ml | MIC [10]: < 1 U/ml | MIC [11]: 64 U/ml | MIC [12]: 128 U/ml | MIC [13]: 8 U/ml

Compound: CC1(C)S[C@@H]2[C@H](NC(=O)[C@H](NC(=O)c3ccc(NC=O)cc3)c3ccccc3)C(=O)N2[C@H]1C(=O)O [Example 41, Sodium D(-)-α -(4-formylamino-benzoylamino)-benzylpenicillin]
MIC [1]: 64 U/ml | Surviving animals [15, 21]: 80% | Surviving animals ([15]; 2nd day after infection, experiment with Ex.41): 50% | Surviving animals ([15]; 3rd day after infection, experiment with Ex.41): 50% | Surviving animals ([15]; 5th day after infection, experiment with Ex.41): 50% | MIC [2]: 8 U/ml | MIC [3]: 8 U/ml | MIC [4]: 64 U/ml | MIC [5]: 32 U/ml | MIC [6]: 64 U/ml | MIC [7]: 128 U/ml | MIC [8]: > 256 U/ml | MIC [9]: 32 U/ml | MIC [10]: < 1 U/ml | MIC [11]: 128 U/ml | MIC [13]: 32 U/ml

Compound: CC1(C)S[C@@H]2[C@H](NC(=O)[C@H](NC(=O)c3ccc(NC(=O)C=Cc4ccccc4)cc3)c3ccccc3)C(=O)N2[C@H]1C(=O)O [Example 35]
MIC [1]: < 1 U/ml | MIC [2]: < 1 U/ml | MIC [3]: ~ 4 U/ml | MIC [4]: ~ 1 U/ml | MIC [5]: 4 U/ml | MIC [6]: 4 U/ml | MIC [7]: 16 U/ml | MIC [8]: > 256 U/ml | MIC [9]: 8 U/ml | MIC [10]: < 1 U/ml | MIC [11]: 8 U/ml | MIC [12]: 128 U/ml | MIC [13]: 4 U/ml

Compound: COc1ccc(C(=O)Nc2ccc(C(=O)N[C@@H](C(=O)N[C@@H]3C(=O)N4[C@@H]3SC(C)(C)[C@@H]4C(=O)O)c3ccccc3)cc2)cc1 [Example 16]
MIC [1]: 8 U/ml | MIC [2]: ~ 1 U/ml | MIC [3]: 8 U/ml | MIC [4]: 64 U/ml | MIC [5]: 16 U/ml | MIC [6]: 16 U/ml | MIC [7]: 32 U/ml | MIC [8]: > 256 U/ml | MIC [9]: 64 U/ml | MIC [10]: < 1 U/ml | MIC [11]: 16 U/ml | MIC [12]: 256 U/ml | MIC [13]: 8 U/ml

Compound: CC(N=[N+]=[N-])C(=O)Nc1ccc(C(=O)N[C@@H](C(=O)N[C@@H]2C(=O)N3[C@@H]2SC(C)(C)[C@@H]3C(=O)O)c2ccccc2)cc1 (stereo partly shown) [Example 37]
MIC [1]: 16 U/ml | MIC [2]: 4 U/ml | MIC [3]: 16 U/ml | MIC [4]: 128 U/ml | MIC [5]: ~ 32 U/ml | MIC [6]: 32 U/ml | MIC [7]: 64 U/ml | MIC [8]: > 256 U/ml | MIC [9]: 64 U/ml | MIC [10]: < 1 U/ml | MIC [11]: 32 U/ml | MIC [12]: ~ 128 U/ml | MIC [13]: 8 U/ml

Compound: COc1cc(C(=O)Nc2ccc(C(=O)N[C@@H](C(=O)N[C@@H]3C(=O)N4[C@@H]3SC(C)(C)[C@@H]4C(=O)O)c3ccccc3)cc2)cc(OC)c1OC [Example 22, Sodium D(-)-α-(4-[3,4,5-trimethoxybenzoylaminobenzoylamino])-benzylpenicillin]
MIC [4]: ~ 16 U/ml | MIC [8]: > 256 U/ml | MIC [10]: < 1 U/ml | Surviving animals [14, 23]: 80% | Surviving animals [14, 24]: 80% | Surviving animals ([14]; 3rd day after infection, experiment with Ex.22): 80%

MIC [1]: 8 U/ml | MIC [2]: 8 U/ml | MIC [3]: 8 U/ml | MIC [4]: 128 U/ml | MIC [5]: 16 U/ml | MIC [6]: 32 U/ml | MIC [7]: 64 U/ml | MIC [8]: > 256 U/ml | MIC [9]: 64 U/ml | MIC [10]: < 1 U/ml | MIC [11]: 32 U/ml | MIC [12]: 16 U/ml | MIC [13]: 16 U/ml
Compound: CC1(C)S[C@@H]2[C@H](NC(=O)[C@H](NC(=O)c3ccc(NC(=O)c4ccccc4)cc3)c3ccccc3)C(=O)N2[C@H]1C(=O)O [Example 25]

Compound: CC1(C)S[C@@H]2[C@H](NC(=O)[C@H](NC(=O)c3ccc(NC(=O)C4CCC4)cc3)c3ccccc3)C(=O)N2[C@H]1C(=O)O [Example 5, sodium D(-)-α-(4-cyclobutanecarbonylaminobenzoylamino)-benzylpenicillin]
MIC [1]: 32 U/ml | MIC [2]: 8 U/ml | MIC [3]: 16 U/ml | MIC [4]: 32 U/ml | MIC [5]: 64 U/ml | MIC [6]: 64 U/ml | MIC [7]: 128 U/ml | MIC [8]: > 256 U/ml | MIC [9]: 32 U/ml | MIC [10]: < 1 U/ml | MIC [11]: 64 U/ml | MIC [12]: 256 U/ml | MIC [13]: 16 U/ml
